Data published in patent publication US11098055B2, “Ester ACC inhibitors and uses thereof” (Gilead Apollo, LLC, priority 2015, dated 2021).
pIC50: −log10 of the molar value. ≈ marks a conversion by molar mass, not a printed value. Read-outs that look alike come from different tables or passages of the source.

What was measured:
[1] = test system: Rhizoctonia solani (Rs); assay: Growth inhibition assay of fungal pathogens; assay type: cell-based; conditions: 48 h, read-out: Concentration at 90% Inhibition Rs
Summary of the method: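 Spores, or mycelial plugs for Rhizoctonia, in 17% V8 medium (¼ PDB for plugs) were exposed to compound at final 50, 10 and 2 ppm or 2, 0.4 and 0.08 ppm, with 2% DMSO. Growth was read by OD600 with blank subtraction plus visual rating; percent inhibition at 48 h is relative to 2% DMSO control.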

[2] = test system: Botrtyis cinerea (Bc); assay: Growth inhibition assay of fungal pathogens; assay type: cell-based; conditions: 48 h, read-out: Concentration at 90% Inhibition Bc
Summary of the method: (§1)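 Percent growth inhibition is scored at 48 h, by OD600 (blank-subtracted) and visual rating against the 2% DMSO control. Compounds were tested at final 50, 10, 2 ppm or 2, 0.4, 0.08 ppm on pathogen spores diluted in 17% V8 medium; mycelial plugs in ¼ PDB were used for Rhizoctonia.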

[3] = test system: Phytophthora capsici (Pc); assay: Growth inhibition assay of fungal pathogens; assay type: cell-based; conditions: 48 h, read-out: Concentration at 90% Inhibition Pc
Summary of the method: as §1

[4] = test system: Diplodia maydis (Dm); assay: Growth inhibition assay of fungal pathogens; assay type: cell-based; conditions: Stenocarpella maydis, 48 h, read-out: Concentration at 90% Inhibition Dm
Summary of the method: as §1

[5] = test system: Fusarium virguliforme (Fv); assay: Growth inhibition assay of fungal pathogens; assay type: cell-based; conditions: 48 h, read-out: Concentration at 90% Inhibition Fv
Summary of the method: as §1

[6] = test system: Fusarium moniliforme (Fm); assay: Growth inhibition assay of fungal pathogens; assay type: cell-based; conditions: Fusarium verticillioides, 48 h, read-out: Concentration at 90% Inhibition Fm
Summary of the method: as §1

[7] = test system: Collectotrichum graminicola (Cg); assay: Growth inhibition assay of fungal pathogens; assay type: cell-based; conditions: 48 h, read-out: Concentration at 90% Inhibition Cg
Summary of the method: as §1

[8] = test system: Septoria tritici (St); assay: Growth inhibition assay of fungal pathogens; assay type: cell-based; conditions: Zymoseptoria tritici, 48 h, read-out: Concentration at 90% Inhibition St
Summary of the method: as §1

[9] = target: hACC2 (Homo sapiens, UniProt O00763); assay: In vitro ACC2 inhibition assay (ADP-Glo), human ACC2; assay type: biochemical
Chain of hACC2 (O00763 whole entry): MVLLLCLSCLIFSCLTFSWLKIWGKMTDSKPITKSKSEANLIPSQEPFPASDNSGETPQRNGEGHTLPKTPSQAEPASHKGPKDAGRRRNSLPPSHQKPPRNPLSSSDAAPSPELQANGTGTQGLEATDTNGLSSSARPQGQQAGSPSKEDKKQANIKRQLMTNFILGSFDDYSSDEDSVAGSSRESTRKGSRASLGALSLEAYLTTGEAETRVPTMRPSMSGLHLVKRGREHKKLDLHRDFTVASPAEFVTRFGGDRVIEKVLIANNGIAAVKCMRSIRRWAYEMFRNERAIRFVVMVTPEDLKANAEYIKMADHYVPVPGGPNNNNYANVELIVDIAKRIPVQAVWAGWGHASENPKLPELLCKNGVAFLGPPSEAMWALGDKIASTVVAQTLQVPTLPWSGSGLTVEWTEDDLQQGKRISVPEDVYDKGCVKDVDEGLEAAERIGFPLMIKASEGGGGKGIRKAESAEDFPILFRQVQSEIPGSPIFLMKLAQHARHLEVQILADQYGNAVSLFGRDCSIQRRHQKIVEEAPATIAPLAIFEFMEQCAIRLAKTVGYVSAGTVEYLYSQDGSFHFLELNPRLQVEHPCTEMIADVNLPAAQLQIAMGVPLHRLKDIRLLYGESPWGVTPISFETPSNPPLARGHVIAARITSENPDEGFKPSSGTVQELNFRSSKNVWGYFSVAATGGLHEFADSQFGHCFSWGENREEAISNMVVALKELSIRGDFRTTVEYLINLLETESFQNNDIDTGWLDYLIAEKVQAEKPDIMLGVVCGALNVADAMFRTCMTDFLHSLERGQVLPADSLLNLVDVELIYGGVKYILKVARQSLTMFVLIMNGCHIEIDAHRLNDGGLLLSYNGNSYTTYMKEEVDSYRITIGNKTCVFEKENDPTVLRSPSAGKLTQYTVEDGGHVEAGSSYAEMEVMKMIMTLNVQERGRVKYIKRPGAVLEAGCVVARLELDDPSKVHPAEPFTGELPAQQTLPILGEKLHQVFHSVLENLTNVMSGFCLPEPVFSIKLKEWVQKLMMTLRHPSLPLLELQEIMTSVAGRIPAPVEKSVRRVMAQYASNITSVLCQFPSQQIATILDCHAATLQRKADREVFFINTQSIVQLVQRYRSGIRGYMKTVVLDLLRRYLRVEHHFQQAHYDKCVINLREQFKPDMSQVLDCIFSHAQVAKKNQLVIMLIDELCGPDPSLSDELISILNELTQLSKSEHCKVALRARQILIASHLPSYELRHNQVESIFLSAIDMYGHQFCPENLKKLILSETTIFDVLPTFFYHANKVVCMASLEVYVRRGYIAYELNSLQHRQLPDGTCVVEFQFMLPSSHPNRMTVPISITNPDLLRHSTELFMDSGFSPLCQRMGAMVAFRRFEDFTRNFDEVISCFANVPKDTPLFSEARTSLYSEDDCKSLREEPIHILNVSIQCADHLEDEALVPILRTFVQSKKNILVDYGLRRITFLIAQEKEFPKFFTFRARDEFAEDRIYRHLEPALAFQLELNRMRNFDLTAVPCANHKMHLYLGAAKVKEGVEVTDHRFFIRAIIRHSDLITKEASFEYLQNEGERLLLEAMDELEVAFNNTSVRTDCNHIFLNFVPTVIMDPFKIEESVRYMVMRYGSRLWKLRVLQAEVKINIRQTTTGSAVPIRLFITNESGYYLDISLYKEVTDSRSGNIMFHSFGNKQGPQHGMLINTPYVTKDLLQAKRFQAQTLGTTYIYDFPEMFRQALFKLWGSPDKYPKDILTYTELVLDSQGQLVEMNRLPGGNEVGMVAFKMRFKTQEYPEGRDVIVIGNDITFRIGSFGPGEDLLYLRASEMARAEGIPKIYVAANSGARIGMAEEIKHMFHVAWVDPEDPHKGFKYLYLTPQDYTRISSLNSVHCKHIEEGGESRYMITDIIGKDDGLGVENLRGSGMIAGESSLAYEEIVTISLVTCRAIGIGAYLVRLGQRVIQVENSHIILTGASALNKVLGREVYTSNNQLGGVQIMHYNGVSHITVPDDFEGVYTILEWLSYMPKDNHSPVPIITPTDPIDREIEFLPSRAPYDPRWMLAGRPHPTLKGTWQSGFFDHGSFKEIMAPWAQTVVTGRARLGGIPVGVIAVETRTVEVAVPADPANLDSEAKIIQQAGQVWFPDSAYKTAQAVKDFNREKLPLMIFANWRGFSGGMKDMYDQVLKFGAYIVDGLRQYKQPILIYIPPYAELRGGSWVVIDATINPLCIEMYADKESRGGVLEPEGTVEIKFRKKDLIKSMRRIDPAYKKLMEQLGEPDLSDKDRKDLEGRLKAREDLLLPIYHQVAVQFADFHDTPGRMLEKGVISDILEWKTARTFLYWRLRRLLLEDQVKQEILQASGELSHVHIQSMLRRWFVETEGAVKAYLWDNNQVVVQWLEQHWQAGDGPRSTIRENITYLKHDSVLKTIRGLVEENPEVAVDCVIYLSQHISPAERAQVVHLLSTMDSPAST
Summary of the method: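 ADP-Glo luminescent ADP detection with 5 nM ACC2, 20 μM ATP, 20 μM acetyl-CoA, 12 mM NaHCO3, 2 mM DTT, 5% DMSO; compound (30 μM-0.00051 μM, 11 points) preincubated 15 min, reaction 60 min at room temperature. Percent inhibition against DMSO and positive controls; IC50 by four-parameter nonlinear fit.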

Work on CCOC(=O)c1sc2c(c1C)c(=O)n(C(C)(C)C(=O)NC(C)C)c(=O)n2C[C@H](OC[C@@H](C)C#N)c1cc(F)ccc1OC [Compound I-35, ethyl 1-((R)-2-((S)-2-cyanopropoxy)-2-(5-fluoro-2-methoxyphenyl)ethyl)-3-(1-(isopropylamino)-2-methyl-1-oxopropan-2-yl)-5-methyl-2,4-dioxo-1,2,3,4-tetrahydrothieno[2,3-d]pyrimidine-6-carboxylate] yielded an IC90 ([1]; Table 4b) of 0.08 µg/mL (≈ 0.13 µM), an IC90 ([2]; Table 4b) of 0.4 µg/mL (≈ 0.649 µM) and an IC90 ([3]; Table 4b) of no less than 50 µg/mL. For the same compound, the IC90 ([4]; Table 4b) was 0.4 µg/mL (≈ 0.649 µM), the IC90 ([5]; Table 4b) was 0.4 µg/mL (≈ 0.649 µM) and the IC90 ([6]; Table 4b) was 0.08 µg/mL (≈ 0.13 µM). For the same compound, the IC90 ([7]; Table 4b) was 0.08 µg/mL (≈ 0.13 µM), the IC90 ([8]; Table 4b) was 10 µg/mL (≈ 16.2 µM) and the pIC50 ([9]; Table 2b (additional results)) was 8.00 to 8.52.
Work on CCNC(=O)C(C)(C)n1c(=O)c2c(C)c(C(=O)OCC)sc2n(C[C@H](OC(C)C)c2ccccc2OC)c1=O [Compound I-4, (R)-ethyl 3-(1-(ethylamino)-2-methyl-1-oxopropan-2-yl)-1-(2-isopropoxy-2-(2-methoxyphenyl)ethyl)-5-methyl-2,4-dioxo-1,2,3,4-tetrahydrothieno[2,3-d]pyrimidine-6-carboxylate] yielded an IC90 ([1]; Table 4a) of no less than 50 µg/mL, an IC90 ([1]; Table 4b) of no less than 50 µg/mL and an IC90 ([2]; Table 4a) of 2 µg/mL (≈ 3.57 µM). It also gave an IC90 ([2]; Table 4b) of 2 µg/mL (≈ 3.57 µM), an IC90 ([3]; Table 4a) of no less than 50 µg/mL and an IC90 ([3]; Table 4b) of no less than 50 µg/mL. The IC90 ([4]; Table 4a) was no less than 50 µg/mL, the IC90 ([4]; Table 4b) was 10 µg/mL (≈ 17.9 µM) and the IC90 ([5]; Table 4a) was 2 µg/mL (≈ 3.57 µM). It also gave an IC90 ([5]; Table 4b) of 2 µg/mL (≈ 3.57 µM), an IC90 ([6]; Table 4a) of 0.4 µg/mL (≈ 0.715 µM) and an IC90 ([6]; Table 4b) of 0.4 µg/mL (≈ 0.715 µM). The IC90 ([7]; Table 4a) was no less than 50 µg/mL, the IC90 ([7]; Table 4b) was 10 µg/mL (≈ 17.9 µM) and the IC90 ([8]; Table 4a) was no less than 50 µg/mL. For the same compound, the IC90 ([8]; Table 4b) was no less than 50 µg/mL, the pIC50 ([9]; Table 2a) was 7.40 to 8.00 and the pIC50 ([9]; Table 2b (additional results)) was 7.40 to 8.00.
For CCOC(=O)c1sc2c(c1C)c(=O)n([C@@H](C)C(=O)N1CCCC1)c(=O)n2C[C@H](OCCC#N)c1cc(F)ccc1OC [Compound I-23, ethyl 1-((R)-2-(2-cyanoethoxy)-2-(5-fluoro-2-methoxy-phenyl)ethyl)-5-methyl-2,4-dioxo-3-((S)-1-oxo-1-(pyrrolidin-1-yl)propan-2-yl)-1,2,3,4-tetrahydrothieno[2,3-d]pyrimidine-6-carboxylate], the IC90 ([1]; Table 4b) was 10 µg/mL (≈ 16.6 µM), the IC90 ([2]; Table 4b) was 10 µg/mL (≈ 16.6 µM) and the IC90 ([3]; Table 4b) was no less than 50 µg/mL. For the same compound, the IC90 ([4]; Table 4b) was 10 µg/mL (≈ 16.6 µM), the IC90 ([5]; Table 4b) was no less than 50 µg/mL and the IC90 ([6]; Table 4b) was 2 µg/mL (≈ 3.33 µM). For the same compound, the IC90 ([7]; Table 4b) was no less than 50 µg/mL, the IC90 ([8]; Table 4b) was no less than 50 µg/mL and the pIC50 ([9]; Table 2b (additional results)) was 8.00 to 8.52.
In the case of CCOC(=O)c1sc2c(c1C)c(=O)n(C(C)(C)C(=O)NC(C)C)c(=O)n2C[C@H](OCC#N)c1cc(F)ccc1OC [Compound I-33, ethyl (R)-1-(2-(cyanomethoxy)-2-(5-fluoro-2-methoxy-phenyl)ethyl)-3-(1-(isopropylamino)-2-methyl-1-oxopropan-2-yl)-5-methyl-2,4-dioxo-1,2,3,4-tetrahydrothieno[2,3-d]pyrimidine-6-carboxylate], the IC90 ([1]; Table 4b) was 0.4 µg/mL (≈ 0.68 µM), the IC90 ([2]; Table 4b) was 0.4 µg/mL (≈ 0.68 µM) and the IC90 ([3]; Table 4b) was no less than 50 µg/mL. For the same compound, the IC90 ([4]; Table 4b) was 2 µg/mL (≈ 3.4 µM), the IC90 ([5]; Table 4b) was 0.4 µg/mL (≈ 0.68 µM) and the IC90 ([6]; Table 4b) was 0.08 µg/mL (≈ 0.136 µM). For the same compound, the IC90 ([7]; Table 4b) was 2 µg/mL (≈ 3.4 µM), the IC90 ([8]; Table 4b) was 10 µg/mL (≈ 17 µM) and the pIC50 ([9]; Table 2b (additional results)) was 8.00 to 8.52.
CCOC(=O)c1sc2c(c1C)c(=O)n(C(C)(C)C(=O)N1CCCC1)c(=O)n2C[C@H](OC1CCOCC1)c1ccccc1OC [Compound I-3, ethyl (R)-1-(2-(2-methoxyphenyl)-2-((tetrahydro-2H-pyran-4-yl)oxy)ethyl)-5-methyl-3-(2-methyl-1-oxo-1-(pyrrolidin-1-yl)propan-2-yl)-2,4-dioxo-1,2,3,4-tetrahydrothieno[2,3-d]pyrimidine-6-carboxylate] gave an IC90 ([1]; Table 4a) of 0.4 µg/mL (≈ 0.637 µM), an IC90 ([1]; Table 4b) of 0.4 µg/mL (≈ 0.637 µM) and an IC90 ([2]; Table 4a) of 2 µg/mL (≈ 3.19 µM). It also gave an IC90 ([2]; Table 4b) of 2 µg/mL (≈ 3.19 µM), an IC90 ([3]; Table 4a) of no less than 50 µg/mL and an IC90 ([3]; Table 4b) of no less than 50 µg/mL. It also gave an IC90 ([4]; Table 4a) of 2 µg/mL (≈ 3.19 µM), an IC90 ([4]; Table 4b) of 2 µg/mL (≈ 3.19 µM) and an IC90 ([5]; Table 4a) of 0.4 µg/mL (≈ 0.637 µM). For the same compound, the IC90 ([5]; Table 4b) was 0.4 µg/mL (≈ 0.637 µM), the IC90 ([6]; Table 4a) was 0.08 µg/mL (≈ 0.127 µM) and the IC90 ([6]; Table 4b) was 0.08 µg/mL (≈ 0.127 µM). For the same compound, the IC90 ([7]; Table 4a) was 0.4 µg/mL (≈ 0.637 µM), the IC90 ([7]; Table 4b) was 0.4 µg/mL (≈ 0.637 µM) and the IC90 ([8]; Table 4a) was no less than 50 µg/mL. The IC90 ([8]; Table 4b) was no less than 50 µg/mL, the pIC50 ([9]; Table 2a) was 7.40 to 8.00 and the pIC50 ([9]; Table 2b (additional results)) was 7.40 to 8.00.
